In US6395541B1, “Methods for the identification of compounds capable of inhibiting HIV-1 viral replication employing murine cell lines expressing human topoisomerase I” (The Rockefeller University, priority 1996, dated 2002):

Key:
HIV-1 [1] = conditions: cited from earlier work
HIV-1 [2] = conditions: AIDS patients; cited from earlier work
HIV-1 IIIB strain = assay: Southern hybridization of DNA from HIV-1 infected MT2 cells with drug treatment; type: cell-based; conditions: HIV-1 IIIB 0.1 m.o.i., 72 hrs, drugs 0.01-10 μg/ml
Description: FIG. 5. Southern hybridization of DNA from HIV-1 infected cells with drug treatment. […] cells, MT2, infected with the HIV-1 IIIB strain were treated with AZT, CPT or TAN at concentrations (from right to left) AZT 0.01, 0.1, 1.0, 10 μg/ml, CPT 0.01, 0.1, 1.0 μg/ml, TAN 0.01, 0.1, 1.0 μg/ml respectively.
MT2 cells were incubated for 2 hours with HIV-1 IIIB strain (Ratner et al., 1985 Nature 313: 277-284) at 0.1 m.o.i. with drugs. Concentrations ranged from no drugs 0,0, AZT 0.01, 0.1, 1, 10 μg/mi, CPT 0.01, 0. 1, 1 μg/ml TAN 0.01, 0. 1, 1 μg/ml, CPT 0.1, 1, 10 μg/ml, TAN 0.1, 1, 10 μg/mi respectively (FIG. 5). After washing with PBS 3 times, cells were incubated again for 72 hrs with or without concentration of drugs as indicated, then lysed with 1% SDS, 10 Mm Tris HCl (pH 8.0), 5 Mm EDTA, 1M NaCl(Hirt's method. Following overnight incubation at 4 C., large molecule of DNA were precipitated by centrifugation. Supernatants were treated with 100 μg/ml of protease K at 56° C. for 2 hrs and after treated with phenol-chloroform, small molecules of DNA were precipitated and subjected to southern hybridization. Transferred nylon membrane (Schleicher & Schuell) were probed with (α-^32P) dCTP-random-primed-labeled primer.

topo I [3] = target: T1, topo I (Homo sapiens, UniProt P11387); assay: Reverse transcriptase assay, ssDNA synthesis and strand transfer in presence of topo I; type: biochemical; conditions: topo I 0.16 unit per 50 μl; CPT 400, 40 and 4 μM; concentration-dependent
T1 sequence (P11387 1-765): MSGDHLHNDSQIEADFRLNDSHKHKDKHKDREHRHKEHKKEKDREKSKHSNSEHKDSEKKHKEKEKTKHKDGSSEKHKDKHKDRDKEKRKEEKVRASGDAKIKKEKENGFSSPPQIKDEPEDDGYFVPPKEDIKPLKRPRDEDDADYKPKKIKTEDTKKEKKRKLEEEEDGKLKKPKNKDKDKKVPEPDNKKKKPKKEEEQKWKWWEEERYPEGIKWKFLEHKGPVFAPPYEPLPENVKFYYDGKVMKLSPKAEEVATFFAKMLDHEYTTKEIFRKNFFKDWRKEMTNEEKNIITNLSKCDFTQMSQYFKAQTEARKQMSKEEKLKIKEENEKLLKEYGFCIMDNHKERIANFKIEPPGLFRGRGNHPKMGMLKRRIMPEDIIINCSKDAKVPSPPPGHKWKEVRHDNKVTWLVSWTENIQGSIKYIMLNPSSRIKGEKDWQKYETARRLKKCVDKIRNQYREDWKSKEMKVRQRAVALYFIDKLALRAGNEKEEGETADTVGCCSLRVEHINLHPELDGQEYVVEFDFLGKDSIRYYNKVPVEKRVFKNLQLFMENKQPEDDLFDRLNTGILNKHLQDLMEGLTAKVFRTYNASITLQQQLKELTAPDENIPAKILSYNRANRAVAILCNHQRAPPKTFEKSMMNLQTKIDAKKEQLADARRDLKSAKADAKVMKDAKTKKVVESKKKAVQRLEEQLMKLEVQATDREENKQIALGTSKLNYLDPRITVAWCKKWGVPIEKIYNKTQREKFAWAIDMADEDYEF
Description: Analysis of ssDNA synthesis and strand transfer. […] Schematic representation of two RNA templates employed. […] The 3′RNA represents the 3′end of the HIV-1 RNA and contains the R region and the poly(A) tail. ssDNA synthesis was initiated by an end labeled primer (*) corresponding to the primer binding site (PBS) in the 5′RNA. After strand transfer to the 3′RNA, this would be expected to result in a cDNA product of 867 nucleotides. […] Phosphorescence image analysis of the cDNA product after agarose gel electrophoresis. The presence and absence of 5′RNA and 3′RNA templates are indicated by + and −, respectively. The effects of CPT at concentrations of 400, 40 and 4 μM are indicated by +. Topo I was used at the final concentration of 0.16 unit per 50 μl in all experiments.
Reaction mixtures obtained 300 ng of RNA template in 50 μl of 50 Mm TrisHCL (pH 8.0) containing 150 Mm KCl, 5 Mm MgCl^2, 5 Mm dithiothreitol, 0.5 Mm EGTA, 0.4 unit of RNasin (Promega), 0.1 unit of HIV-1 RT (Seikagaku, Kogyo, Tokyo), 100 ng of primer, 250 μM dNTPs, bovine serum albumin at 0.1 mg/ml, GST-P15 at 0.8 μg/ml 10 μl of glutathione beads (50% vol/vol; Pharmacia), and topo I at final concentrations of 0.16, 0.032 and 0.0064 unit. Samples were incubated at 37° C. for 25 min. […] Gels were dried onto nylon membranes and analyzed with a Fuji BAS2000 phosphorescence imager. […] Reaction products were analyzed as above.

topo I [4] = target: T1, topo I; assay: Reverse transcriptase assay, linear cDNA synthesis from 5'/3' HIV-1 RNA template in presence of topo I; type: biochemical; conditions: HIV-1 RT with topo I 0.16 unit; CPT 400, 40, 4 and 0 μM; concentration dependent
Description: Influence of cellular topo I on HIV-1 RT activity. […] An end-labeled primer (*) was employed to initiate cDNA synthesis and would be expected to result in a product of 1481 nucleotides (nt). […] Phosphorescence image analysis of cDNA products following agarose gel electrophoresis. The presence or absence of topo I is indicated by + and −, respectively. Similarly the presence or absence of CPT is indicated by + and −.
To analyze the influence of topo I on linear cDNA synthesis, the template containing both the 5′ and 3′ ends of HIV-1 RNA was used. cDNA synthesis expected to result in a product of 1481 nucleotides was initiated using a nef gene primer end-labeled with [θ-^32P]ATP (5′-[sequence]-3′; nucleotides 9002-9027). Reaction mixtures obtained 300 ng of RNA template in 50 μl of 50 Mm TrisHCL (pH 8.0) containing 150 Mm KCl, 5 Mm MgCl^2, 5 Mm dithiothreitol, 0.5 Mm EGTA, 0.4 unit of RNasin (Promega), 0.1 unit of HIV-1 RT (Seikagaku, Kogyo, Tokyo), 100 ng of primer, 250 μM dNTPs, bovine serum albumin at 0.1 mg/ml, GST-P15 at 0.8 μg/ml 10 μl of glutathione beads (50% vol/vol; Pharmacia), and topo I at final concentrations of 0.16, 0.032 and 0.0064 unit. Samples were incubated at 37° C. for 25 min. […] Gels were dried onto nylon membranes and analyzed with a Fuji BAS2000 phosphorescence imager.

## CC(C)c1nc(CN(C)C(=O)N[C@H](C(=O)N[C@@H](Cc2ccccc2)C[C@H](O)[C@H](Cc2ccccc2)NC(=O)OCc2cncs2)C(C)C)cs1 [ABT-538]
HIV-1 [1]
  antiviral activity in vitro: potent antiviral activity
HIV-1 [2]
  CD4 lymphocyte counts: rise substantially
  plasma HIV-1 levels: decrease exponentially

## CC[C@@]1(O)C(=O)OCc2c1cc1n(c2=O)Cc2cc3ccccc3nc2-1 [CPT, camptothecin]
HIV-1 IIIB strain
  HIV-replication in HIV-infected cells, Southern blot analysis: reduced HIV-replication
Topo I [3]
  cDNA product of 867 nucleotides (ssDNA synthesis and strand transfer): inhibited
Topo I [4]
  cDNA synthesis (1481 nucleotide product): inhibited
